The target in data set [1] is T1, ER/ERE complex (Homo sapiens, UniProt P03372).
T1 construct: MCF-7 cells in 24-well dishes were transfected overnight with the ERE-TK-Luc reporter plasmid; endogenous in cells; host or cells: MCF-7
T1 sequence (P03372 1-595): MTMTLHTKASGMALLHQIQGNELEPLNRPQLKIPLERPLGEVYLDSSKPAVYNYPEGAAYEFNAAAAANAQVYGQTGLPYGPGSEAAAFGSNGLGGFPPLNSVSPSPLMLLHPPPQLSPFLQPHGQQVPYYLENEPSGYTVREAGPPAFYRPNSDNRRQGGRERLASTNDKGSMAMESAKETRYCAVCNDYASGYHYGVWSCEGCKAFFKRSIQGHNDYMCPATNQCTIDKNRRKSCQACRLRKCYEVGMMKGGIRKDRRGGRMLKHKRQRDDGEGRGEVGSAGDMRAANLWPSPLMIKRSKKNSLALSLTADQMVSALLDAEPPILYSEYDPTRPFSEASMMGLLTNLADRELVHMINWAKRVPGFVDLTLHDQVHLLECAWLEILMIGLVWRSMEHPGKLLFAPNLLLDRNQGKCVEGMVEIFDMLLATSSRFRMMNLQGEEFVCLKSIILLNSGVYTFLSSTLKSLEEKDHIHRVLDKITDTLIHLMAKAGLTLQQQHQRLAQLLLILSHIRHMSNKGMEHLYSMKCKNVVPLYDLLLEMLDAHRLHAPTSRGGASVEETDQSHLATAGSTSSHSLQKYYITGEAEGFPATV
As to the kind of experiment: EMSA and supershift assays of ER binding to consensus ERE, MCF-7 nuclear extracts. Type of data set: biochemical. The settings on record: for ER/ERE complex in EMSA, compound added directly to nuclear extracts: 1-5 μM added to MCF-7 nuclear extracts, compared with pre-incubation of cells; for interaction of ER with a model ERE oligonucleotide (EMSA, supershift): MCF-7 cells. The procedure:
After the 24-hr incubation, the cells were harvested, nuclear extracts were prepared, and the extracts were reacted with labeled “hot” ERE and an excess of unlabeled “cold” ERE, as indicated, prior to electrophoresis. In panel B, the experiment was performed similarly except that an anti-ER antibody was added to generate a “supershift”. C., D. Experiments were performed similarly to those above, except that different concentrations of compound (as indicated) were added directly to the reaction mixture containing nuclear extract and were not pre-incubated with whole cells. […] E., F. These experiments were performed similarly to those in C and D, except that anti-ER antibody was added to the reaction mixture to reveal “supershifted” bands. […] The data shown in each panel are representative of three independent experiments.
Double-stranded oligonucleotides containing a consensus ERE were obtained from Santa Cruz Biotechnology (sc-2858). Sequences of the oligonucleotides were: sense 5′-[…]-3′ and antisense: 3′-[…]-5′. Oligonucleotides were 3′-end-labeled using a Biotin Kit (Thermo Scientific, Rockford, IL). DNA binding reactions were carried out using nuclear extracts of MCF-7 cells that were treated ± E2 (10 nM) and ± the indicated compound for 24-hr. Treated cells were harvested and nuclear extracts were prepared using the NE-PER Nuclear and Cytoplasmic Extraction Reagents (Thermo Scientific). Aliquots of nuclear extract protein (2 μg) were incubated with gel-shift binding buffer (LightShift Chemiluminescent EMSA Kit, Thermo Scientific) for 30 min at 25°C. After incubation, 40 fmol of biotin-labeled ERE-containing oligonucleotides were added, and the mixture was re-incubated for 30 min at 25°C. Reaction products were loaded electrophoresed on a 6% DNA retardation gel (Invitrogen) and transferred onto a nylon membrane. Biotin-labeled DNA was detected using the Chemiluminescent Nucleic Acid Detection Module (Thermo Scientific). To test the specificity of binding, a 40-fold excess of unlabeled (“cold”) oligonucleotide was added to one of the reactions along with the biotin-labeled (“hot”) oligonucleotide. Note: In some experiments, the compound was added to the reaction mixture after the nuclear extract was prepared. Supershift assays were performed as above, except that before addition of the hot ERE oligonucleotide, nuclear extracts were incubated with 2-μg of anti-ER IgG (rabbit polyclonal, HC-20, Santa Cruz) for 30 min at 25°C.
A general note: A gel shift assay detects complexes by their altered migration in electrophoresis.

Data set [2] in a line: MTT assay of cell viability. Type of data set: cell-based. The settings on record: human, MCF-7 cells, 24-hr exposure, relative to untreated control. As for the experimental part:
Figure 3 Cytotoxicity and specificity of compounds A., B. Subconfluent proliferating cells were incubated with the indicated compound at the indicated concentration for 24-hr and then harvested for MTT dye reduction assays. Cell viability values (relative to untreated control cells) are means ± SEMs of 10 replicate wells. C., D. Subconfuent proliferating T47D cells were transfected overnight with the MMTV-Luc reporter (0.25 μg per well in 24-well dishes), washed, and allowed to recover for several hr in fresh medium. The cells were then treated with a synthetic progestin (R5020, 10 nM) plus the indicated compound at the indicated concentration for 24 hr and then harvested for luciferase assays. Luciferase activity is expressed relative to the MMTV-Luc control (no agents added) (panel A) or as a percentage of the +R5020 positive control (panel B). Values are means ± SEMs of four replicate wells. The data shown in each panel are representative of three independent experiments.
Assays were performed as described before. After the indicated treatment, cells in 96-well dishes were solubilized and assayed for MTT dye reduction. Cell viability was expressed as the amount of dye reduction relative to untreated control cells. and calculated as means ± SEMs for 10 replicate wells.
For orientation: Tetrazolium assays rely on reduction of a dye to a coloured formazan, in cell work by metabolically active cells.

Data set [3] has as its system LCC2 cells. As to the kind of experiment: cell proliferation assay (cell counts days 1, 3, 5), LCC2. The class given is cell-based, human. Conditions: DMEM + 5% charcoal-stripped serum. As for the experimental part:
Starting on day 1, cells were refed daily with fresh medium (DMEM plus 5% CSS) containing the indicated agent. In panel F, the cells were refed with medium also containing ER-siRNA or control-siRNA (100 nM) at the indicated times. Wells were counted on days 1, 3, and 5 to determine cell numbers. Values are means ± SEMs of triplicate wells. The data shown in each panel are representative of three independent experiments.
Assays were performed using as the growth medium phenol red-free DMEM containing 5% charcoal-stripped serum. Briefly, proliferating cells were harvested using trypsin, counted, inoculated into 12-well dishes at 1 × 10^4 cells per well on day 0 and allowed to attach and recover for 24 hr. The cells were then treated with the indicated agents for up to five days, with daily refeeding with fresh medium and agents. Triplicate wells were counted by Coulter Counter on days 1, 3, and 5. For experiments using siRNAs, cells were treated with the indicated siRNA (100 nM) starting on day -2, and fresh siRNA was added on days 0, 2, and 4.

Bounds are passed on as bounds.

As usually defined, the viability is the share of living cells, or the viability signal relative to a control. As for `O=C(c1cc(Br)ccc1O)c1cc(Br)ccc1O` [4631-P/1], in data set [1], the “ER/ERE complex in EMSA, compound added directly to nuclear extracts” value is reported as “greater effect” and the “interaction of ER with a model ERE oligonucleotide (EMSA, supershift)” value was “disrupt the interaction of ER with a model ERE oligonucleotide”. Besides, in data set [1] (MCF-7 pre-incubated with E2 10 nM and compound 1 or 20 μM for 24 hr), the “ER/ERE complex in EMSA, cells pre-incubated with compound” value is “dose-dependent reduction of the ER/ERE complex”. Also, in data set [2], the viability at 24 h, 1 µM is 100% and the viability at 24 h, 20 µM was over 90%. For the same compound, the “proliferation of Tamoxifen-resistant LCC2 cells” value in data set [3] is “inhibited ER-dependent cell proliferation”.
With `O=C(CC(c1ccccc1)N1CCCCC1)c1ccccc1` (centres unmarked) [35446-L/1, 1,3-diphenyl-3-(piperidin-1-yl)propan-1-one], in data set [1], the “ER/ERE complex in EMSA, compound added directly to nuclear extracts” value is “greater effect” and the “interaction of ER with a model ERE oligonucleotide (EMSA, supershift)” value is “disrupt the interaction of ER with a model ERE oligonucleotide”. Moreover, in data set [2], the viability at 24 h, 1 µM is 100% and the viability at 24 h, 20 µM was over 90%. For the same compound, the “proliferation of Tamoxifen-resistant LCC2 cells” value in data set [3] was “inhibited ER-dependent cell proliferation”.
